Measurements from patent US7052859B2, “MUCIN 4 expression as a marker for pancreatic cancer” (The Board of Regents of the University of Nebraska, priority 2000, dated 2006).
Ends that are not written are not given here.

Legend:
[1] = tested on: MUC4 peptides; assay: Immunogenicity of KLH-conjugated MUC4 peptides in rabbits (serum antibody titre); assay type: in vivo, rabbit; conditions: ten weeks after immunization with KLH-conjugated peptide
Description: The present invention also provides antibodies capable of immunospecifically binding to MUC4. Polyclonal antibodies directed toward human MUC4 protein may be prepared according to standard methods. In a preferred embodiment, monoclonal antibodies are prepared, which react immunospecifically with the various epitopes of the MUC4 protein. Monoclonal antibodies have been prepared according to general methods of Kohler and Milstein, following standard protocols.

[2] = tested on: MUC4 expression in pancreatic cancer cells; conditions: previous work (31); cited from earlier work
[3] = tested on: MUC4 mRNA expression in PBMC; assay: MUC4 mRNA expression (RT-PCR) in PBMC from healthy volunteers after incubation with cytokines, growth factors or mitogens; assay type: cell-based, human; conditions: incubated 24 and 48 hours, serum free, retinoic acid 100 nM, 1 μM, TGF-β2 10, 20 and 200 pg/ml
Description: Freshly prepared PBMC (10×10^6 cells) from healthy volunteers were stimulated with PHA (10 μg/ml) and LPS (20 μg/ml, all from Sigma) for 12 and 24 hours. To study the effect of different cytokines and growth factors on the MUC4 mRNA expression, 10 million PBMC were incubated with TGF-β1 (10; 20 and 200 pg/ml), TGF-β2 (10; 20 and 200 pg/ml) (all from R&D systems, Minneapolis, Minn.), retinoic acid (RA) (100 nM; 1 μM) (Sigma), GM-CSF (100 U/ml) (Immunex Corp. Seattle, Wash.), IL-1β (10 ng/ml), IL-6 (10 ng/ml), IL-9 (50 ng/ml), IFNγ (10 and 20 ng/ml), TNFα (10 and 50 ng/ml) or with IFNγ (10 and 20 ng/ml) in combination with TNFα (10 and 50 ng/ml) (all from PeproTech Inc., Rocky Hill, N.J.) for 24 and 48 hours under serum free conditions.
The single step RNA isolation method was used for RNA preparation as previously described (28,29). In brief, cells were homogenized in a denaturing solution containing 4 M guanidine thiocyanate. The homogenate was mixed sequentially with 2 M sodium acetate (pH 4), phenol and chloroform/isoamyl alcohol. […] The RNA pellet was then resuspended in diethyl pyrocarbonate (DEPC)-treated water, and the final RNA concentration was determined spectrophotometrically by measuring the absorbance at 260 nm and 280 nm (DU 640B, Beckman Coulter, Fullstone Calif.). […]

Molecule	antibody titre of rabbit sera reacting specifically with the peptide [1]	MUC4 expression after treatment [2]	induction of MUC4 mRNA expression in PBMC [3]
ATYRPPQPAWMFGD (also: KLH conjugate; listed as Homo sapiens) [MUC4 α, MUC4 peptide synthesized and conjugated to the KLH protein as an immunogen]	47,338 units		
GARFSYFLNSAEALP (also: KLH conjugate; listed as Homo sapiens) [MUC4 β, MUC4 peptide synthesized and conjugated to the KLH protein as an immunogen]	31,108 units		
TGF-β2: growth factor from R&D systems; produced and secreted by pancreatic cancer cell lines (protein, UniProt P61812 303-414, looked up) Transforming growth factor …: ALDAAYCFRNVQDNCCLRPLYIDFKRDLGWKWIHEPKGYNANFCAGACPYLWSSDTQHSRVLSLYNTINPEASASPCCVSQDLEPLTILYYIGKTPKIEQLSNMIVKSCKCS		resulted in MUC4 expression	neither incubation with retinoic acid and TGF-β2 nor the activation of T-cells and B-cells with PHA and LPS or incubation with various other cytokines induced MUC4 mRNA expression
